This is an account of results in US20230069722A1, “TUBULYSINS AND PROTEIN-TUBULYSIN CONJUGATES” (priority 2020, published 2023).

The structures appear in SMILES notation. Like-named read-outs stand apart in the source and are kept apart here.

This experiment has as its system HCT15 cells. In words: MDR cell based killing assay, HCT15 cells with or without Verapamil (CellTiter-Glo). Details: species or system human. To be noted: Homo sapiens. As for the experimental part:
To test the ability of the disclosed tubulysin payloads or prodrug payloads to kill human cell lines, an in vitro cytotoxicity assay can be performed. In vitro cytotoxicity of the disclosed payloads, as well as reference compounds, are evaluated using the CellTiter-Glo Assay Kit (Promega, Cat # G7573), in which the quantity of ATP present is used to determine the number of viable cells in culture. For the assay, C4-2, HEK293, or T47D cells are seeded at 4000 cells/well on Nunclon white 96-well plates in complete growth medium (DME high glucose:Ham's F12 at 4:1, 10% FBS, 100 units/ml Penicillin, 100 ug/ml streptomycin, 53 ug/ml glutatmine, 10 ug/ml insulin, 220 ng/ml biotin, 12.5 pg/ml T3, 12.5 ug/ml Adenine, 4 ug/ml transferrin for C42 cells; DME high glucose, 10% FBS, 100 units/ml Penicillin, 100 ug/ml streptomycin, 53 ug/ml glutatmine for HEK293; RPMI, 10% FBS, 100 units/ml Penicillin, 100 ug/ml streptomycin, 53 ug/ml glutatmine, 10 ug/ml insulin, 10 mM HEPEs, 200 nM Sodium Pyruvate for T47D cells) and grown overnight at 37° C. in 5% CO2. For cell viability curves, 1:3 serially diluted payloads are added to the cells at final concentrations ranging from 100 nM to 15 pM, including a no treatment control group, and are then incubated for 5 days. After the 5-day incubation, cells are incubated at room temperature with 100 μL of CellTiter-Glo reagents for 10 minutes. Relative luminescence units (RLU) can be determined on a Victor plate reader (PerkinElmer). The IC50 values are determined from a four-parameter logistic equation over a 10-point response curve (GraphPad Prism). All IC50 values are expressed in molar (M) concentration. The percent cell killing (% kill) at the maximum concentration tested is estimated from the following formula (100−% viable cells). Averages±standard deviation (SD) can be included where replicate experiments are performed.
In vitro cytotoxicity of the disclosed payloads as well as reference compounds are evaluated similarly as described above except using 1000 HCT15 cells, a colorectal carcinoma cell line, in growth medium (RPMI, 10% FBS, 100 units/ml Penicillin, 100 ug/ml streptomycin, 53 ug/ml glutatmine) with or without 5 ug/mL of Verapamil.
For each payload or prodrug payload, the HCT-15 IC50 in the absence of Verapamil is divided by the HCT-15 IC50 in the presence of Verapamil (HCT-15 IC50/HCT-15+Verapamil IC50). […] The reference compound, (MMAE), can have a ratio of 23.7. […]

[1] abbreviates: HCT-15, read-out: HCT-15 with verapamil IC50.

For the compound `CCCCCCN(C(=O)[C@@H](NC(=O)[C@H]1CCCCN1C)[C@@H](C)CC)[C@H](C[C@@H](OC(C)=O)c1nc(C(=O)NS(=O)(=O)c2ccc(N)cc2)cs1)C(C)C` [Compound P43, (1R,3R)-1-{4-[(4-aminobenzenesulfonyl)carbamoyl]-1,3-thiazol-2-yl}-3-[(2S,3S)—N-hexyl-3-methyl-2-{[(2R)-1-methylpiperidin-2-yl]formamido}pentanamido]-4-methylpentyl Acetate], the IC50 came to 4.99 nM (HCT-15, read-out: HCT-15 IC50) and 1.42 nM under setting [1].

With `C#CCCCON(C(=O)[C@@H](NC(=O)[C@H]1CCCCN1C)[C@@H](C)CC)[C@H](C[C@@H](OC(C)=O)c1nc(C(=O)N[C@@H](Cc2ccc(NC(=O)CNC(=O)CN)cc2)CC(C)(C)C(=O)O)cs1)C(C)C` [Compound P39, (4S)-4-({2-[(1R,3R)-1-(acetyloxy)-4-methyl-3-[(2S,3S)-3-methyl-2-{[(2R)-1-methylpiperidin-2-yl]formamido}-N-(pent-4-yn-1-yloxy)pentanamido]pentyl]-1,3-thiazol-4-yl}formamido)-5-{4-[2-(2-aminoacetamido)acetamido]phenyl}-2,2-dimethylpentanoic Acid], where the note is “HCT-15, read-out: HCT-15 IC50”, the half-inhibitory concentration (IC50) was 0.62 nM.

As for `CCCCCCN(C(=O)[C@@H](NC(=O)[C@H]1CCCCN1)[C@@H](C)CC)[C@H](C[C@@H](OCC)c1nc(C(=O)N[C@@H](Cc2ccc(N)c(F)c2)CC(C)(C)C(=O)O)cs1)C(C)C` [Compound P16, (4S)-5-(4-amino-3-fluorophenyl)-4-({2-[(1R,3R)-1-ethoxy-3-[(2S,3S)—N-hexyl-3-methyl-2-[(2R)-piperidin-2-ylformamido]pentanamido]-4-methylpentyl]-1,3-thiazol-4-yl}formamido)-2,2-dimethylpentanoic Acid], the IC50 came out at 1.96 nM (HCT-15, read-out: HCT-15 IC50) and 0.18 nM under setting [1].

For `CCCCCCN(C(=O)[C@@H](NC(=O)[C@H]1C[C@H](C)CCN1)[C@@H](C)CC)[C@H](C[C@@H](OC(C)=O)c1nc(C(=O)N[C@@H](Cc2ccc(N)c(F)c2)CC(C)(C)C(=O)O)cs1)C(C)C` [Compound P14, (4S)-4-({2-[(1R,3R)-1-(acetyloxy)-3-[(2S,3S)—N-hexyl-3-methyl-2-{[(2R,4R)-4-methylpiperidin-2-yl]formamido}pentanamido]-4-methylpentyl]-1,3-thiazol-4-yl}formamido)-5-(4-amino-3-fluorophenyl)-2,2-dimethylpentanoic Acid], the IC50 reads like this: (HCT-15, read-out: HCT-15 IC50) 1.21 nM; under setting [1], 0.1 nM.

`C#CCCCON(C(=O)[C@@H](NC(=O)[C@@]1(C)CCCN1)[C@@H](C)CC)[C@H](C[C@@H](OC(C)=O)c1nc(C(=O)N[C@@H](Cc2ccc(N)c(F)c2)CC(C)(C)C(=O)O)cs1)C(C)C` [Compound P35, (4S)-4-({2-[(1R,3R)-1-(acetyloxy)-4-methyl-3-[(2S,3S)-3-methyl-2-{[(2R)-2-methylpyrrolidin-2-yl]formamido}-N-(pent-4-yn-1-yloxy)pentanamido]pentyl]-1,3-thiazol-4-yl}formamido)-5-(4-amino-3-fluorophenyl)-2,2-dimethylpentanoic Acid]: where the note is “HCT-15, read-out: HCT-15 IC50”, the IC50 is 4.87 nM.

As to `CCCCCCN(C(=O)[C@@H](NC(=O)[C@@]1(C)CCCN1C)[C@@H](C)CC)[C@H](C[C@@H](OC(C)=O)c1nc(C(=O)N[C@@H](Cc2ccc(N)cc2)CC(C)(C)C(=O)O)cs1)C(C)C` [Compound P19, (4S)-4-({2-[(1R,3R)-1-(acetyloxy)-3-[(2S,3S)-2-{[(2R)-1,2-dimethylpyrrolidin-2-yl]formamido}-N-hexyl-3-methylpentanamido]-4-methylpentyl]-1,3-thiazol-4-yl}formamido)-5-(4-aminophenyl)-2,2-dimethylpentanoic Acid], the IC50 (HCT-15, read-out: HCT-15 IC50) stood at 0.2 nM and the IC50 under setting [1] worked out at 0.01 nM.

For `CCCCCCN(C(=O)[C@@H](NC(=O)[C@H]1CCCCN1C)[C@@H](C)CC)[C@H](C[C@@H](OC(C)=O)c1nc(C(=O)NS(=O)(=O)c2ccc(CN)cc2)cs1)C(C)C` [Compound P42, (1R,3R)-1-(4-{[4-(aminomethyl)benzenesulfonyl]carbamoyl}-1,3-thiazol-2-yl)-3-[(2S,3S)—N-hexyl-3-methyl-2-{[(2R)-1-methylpiperidin-2-yl]formamido}pentanamido]-4-methylpentyl Acetate], the IC50 reads like this: (HCT-15, read-out: HCT-15 IC50) over 100 nM; under setting [1], 48.4 nM.

Consider `C#CCCCON(C(=O)[C@@H](NC(=O)[C@H]1CCCCN1C)[C@@H](C)CC)[C@H](C[C@@H](OC(C)=O)c1nc(C(=O)N[C@@H](Cc2ccc(O)cc2)CC(C)(C)C(=O)O)cs1)C(C)C` [Compound P51, (4S)-4-({2-[(1R,3R)-1-(acetyloxy)-4-methyl-3-[(2S,3S)-3-methyl-2-{[(2R)-1-methylpiperidin-2-yl]formamido}-N-(pent-4-yn-1-yloxy)pentanamido]pentyl]-1,3-thiazol-4-yl}formamido)-5-(4-hydroxyphenyl)-2,2-dimethylpentanoic Acid], for which the IC50 was determined as 0.41 nM (HCT-15, read-out: HCT-15 IC50) and 0.16 nM under setting [1].

In the case of `CCCCCCN(C(=O)[C@@H](NC(=O)[C@@]1(C)CCCN1)[C@@H](C)CC)[C@H](C[C@@H](OC(C)=O)c1nc(C(=O)N[C@@H](Cc2ccc(N)c(F)c2)CC(C)(C)C(=O)O)cs1)C(C)C` [Compound P15, (4S)-4-({2-[(1R,3R)-1-(acetyloxy)-3-[(2S,3S)—N-hexyl-3-methyl-2-{[(2R)-2-methylpyrrolidin-2-yl]formamido}pentanamido]-4-methylpentyl]-1,3-thiazol-4-yl}formamido)-5-(4-amino-3-fluorophenyl)-2,2-dimethylpentanoic Acid], the IC50 worked out at 1.01 nM (HCT-15, read-out: HCT-15 IC50) and 0.19 nM under setting [1].

As for `C#CCCCON(C(=O)[C@@H](NC(=O)[C@H]1CCCCN1C)[C@@H](C)CC)[C@H](C[C@@H](OC(C)=O)c1nc(C(=O)N[C@@H](Cc2ccc(NC(=O)[C@H](N)CCC(=O)O)cc2)CC(C)(C)C(=O)O)cs1)C(C)C` [Compound P41, (4S)-4-({2-[(1R,3R)-1-(acetyloxy)-4-methyl-3-[(2S,3S)-3-methyl-2-{[(2R)-1-methylpiperidin-2-yl]formamido}-N-(pent-4-yn-1-yloxy)pentanamido]pentyl]-1,3-thiazol-4-yl}formamido)-5-{4-[(2R)-2-amino-4-carboxybutanamido]phenyl}-2,2-dimethylpentanoic Acid], the IC50 (HCT-15, read-out: HCT-15 IC50) turned out to be 82.7 nM.

As to `CCCCCCN(C(=O)[C@@H](NC(=O)[C@@]1(C)CCCN1)[C@@H](C)CC)[C@H](C[C@@H](OC(C)=O)c1nc(C(=O)N[C@@H](Cc2ccc(O)cc2)CC(C)(C)C(=O)O)cs1)C(C)C` [Compound P22, (4S)-4-({2-[(1R,3R)-1-(acetyloxy)-3-[(2S,3S)—N-hexyl-3-methyl-2-{[(2R)-2-methylpyrrolidin-2-yl]formamido}pentanamido]-4-methylpentyl]-1,3-thiazol-4-yl}formamido)-5-(4-hydroxyphenyl)-2,2-dimethylpentanoic Acid], the IC50 runs as follows: (HCT-15, read-out: HCT-15 IC50) 0.27 nM; under setting [1], 0.08 nM.

Regarding `CCCCCCN(C(=O)[C@@H](NC(=O)[C@H]1CCCCN1C)[C@@H](C)CC)[C@H](C[C@@H](O)c1nc(C(=O)N[C@@H](Cc2ccc(N)c(F)c2)CC(C)(C)C(=O)O)cs1)C(C)C` [Compound P1, (4S)-5-(4-amino-3-fluorophenyl)-4-({2-[(1R,3R)-3-[(2S,3S)—N-hexyl-3-methyl-2-{[(2R)-1-methylpiperidin-2-yl]formamido}pentanamido]-1-hydroxy-4-methylpentyl]-1,3-thiazol-4-yl}formamido)-2,2-dimethylpentanoic Acid], the IC50 was 3 nM (HCT-15, read-out: HCT-15 IC50) and 0.26 nM under setting [1].

In the case of `CCCCCCN(C(=O)[C@@H](NC(=O)[C@H]1CCCCN1C)[C@@H](C)CC)[C@H](C[C@@H](OC(C)=O)c1nc(C(=O)N[C@@H](Cc2ccc(F)cc2)CC(C)(C)C(=O)O)cs1)C(C)C` [Compound P10, (4S)-4-({2-[(1R,3R)-1-(acetyloxy)-3-[(2S,3S)—N-hexyl-3-methyl-2-{[(2R)-1-methylpiperidin-2-yl]formamido}pentanamido]-4-methylpentyl]-1,3-thiazol-4-yl}formamido)-5-(4-fluorophenyl)-2,2-dimethylpentanoic Acid], the IC50 is 0.24 nM (HCT-15, read-out: HCT-15 IC50) and 0.09 nM under setting [1].
